Reference: US20090069373A1, “Quinoline Acids” (Wyeth, priority 2007, published 2009)

Assays:
human LXRβ = target: T1, human LXRβ (Homo sapiens, UniProt P55055); assay: Ligand-binding test procedure for human LXRβ (3H T0901317 competition, flash plates); settings: for Binding ratio a/b: IC50 (μM) LXRα binding/IC50 (μM) LXRβ binding; for IC50: biotinylated hLXRβ, tracer 3H T0901317
T1 construct: biotin (biotinylated; biotinylation tag not described); made in house; host or cells: E. coli
T1 sequence (P55055 1-460): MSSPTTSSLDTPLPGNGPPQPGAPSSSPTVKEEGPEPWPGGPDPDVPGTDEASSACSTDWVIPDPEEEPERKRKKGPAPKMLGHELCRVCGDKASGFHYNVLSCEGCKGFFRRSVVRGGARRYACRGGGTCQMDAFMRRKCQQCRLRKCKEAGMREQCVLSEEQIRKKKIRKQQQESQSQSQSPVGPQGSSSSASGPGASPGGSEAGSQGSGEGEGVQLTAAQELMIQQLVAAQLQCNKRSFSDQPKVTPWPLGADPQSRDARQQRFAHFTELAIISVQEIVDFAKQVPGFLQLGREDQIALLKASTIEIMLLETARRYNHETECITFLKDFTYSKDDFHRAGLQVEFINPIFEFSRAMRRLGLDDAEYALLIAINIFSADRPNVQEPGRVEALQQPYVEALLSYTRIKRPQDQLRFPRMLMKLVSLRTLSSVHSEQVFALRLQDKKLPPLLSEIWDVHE
Experimental: Ligand-Binding Test Procedure for Human LXRβ.
Receptor source: E. coli extract from cells expressing biotinylated hLXRβ. Extract was made in a similar buffer as above, but with 50 mM TRIS.
(§1) Washed streptavidin and coated flash plates with wash buffer.
(§2) Diluted receptor extract to give Bmax ˜4000 cpm and add to the wells.
(§3) Wrapped the plates in aluminum foil and stored them at +4° C. over night.
(§4) Made a dilution series in DMSO of the test ligands.
(§5) Made a 5 nM solution of the radioactive tracer in buffer.
(§6) Mixed 250 μl diluted tracer with 5 μl of the test ligand from each concentration of the dilution series.
(§7) Washed the receptor-coated flash plates.
(§8) Added 200 μl per well of the ligand/radiolabel mixture to the receptor-coated flash plates.
(§9) Wrapped the plates in aluminum foil and incubate at +4° C. over night.
(§10) Aspirated wells, and wash the flashed plates. Sealed the plate.
(§11) Measured the remaining radioactivity in the plate.

human LXRα = target: T2, human LXRα (Homo sapiens, UniProt Q13133); assay: Ligand-binding test procedure for human LXRα (3H T0901317 competition, flash plates); settings: biotinylated hLXRα, tracer 3H T0901317
T2 construct: biotin (biotinylated; biotinylation tag not described); made in house; host or cells: E. coli
T2 sequence (Q13133 1-447): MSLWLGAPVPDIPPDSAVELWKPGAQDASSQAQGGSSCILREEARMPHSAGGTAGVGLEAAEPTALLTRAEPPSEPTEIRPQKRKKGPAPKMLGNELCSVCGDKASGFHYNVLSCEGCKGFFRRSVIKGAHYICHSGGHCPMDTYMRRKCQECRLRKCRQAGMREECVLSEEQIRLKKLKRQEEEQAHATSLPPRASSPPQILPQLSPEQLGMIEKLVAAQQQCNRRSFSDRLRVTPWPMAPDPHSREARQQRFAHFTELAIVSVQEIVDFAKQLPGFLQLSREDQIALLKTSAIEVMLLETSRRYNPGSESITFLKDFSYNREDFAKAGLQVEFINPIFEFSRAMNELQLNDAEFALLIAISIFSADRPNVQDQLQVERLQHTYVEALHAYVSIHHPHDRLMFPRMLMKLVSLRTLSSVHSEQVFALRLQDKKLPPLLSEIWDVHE
Experimental: Ligand-Binding Test Procedure for Human LXRα.
Receptor source: E. coli extract from cells expressing biotinylated hLXRα. Extract was made in a similar buffer as above, but with 50 mM TRIS.
as §1, §2, §3, §4, §5, §6, §7, §8, §9, §10, §11

| Binding ratio a/b (human LXRβ) | IC50 (human LXRβ) [nM] | IC50 (human LXRα) [nM] | Structure (SMILES) |
| --- | --- | --- | --- |
| 16 | 8 | 133 | O=C(O)CC1=CCCc2c(OCc3cccc(-c4c(Cc5ccccc5)cnc5c(C(F)(F)F)cccc45)c3)cccc21 [Example 19, [5-({3-[3-benzyl-8-(trifluoromethyl)quinolin-4-yl]benzyl}oxy)-3,4-dihydronaphthalen-1-yl]acetic acid] |
| 4 | 71 | 276 | O=C(O)Cc1ccc2c(OCc3cccc(-c4c(Cc5ccccc5)cnc5c(C(F)(F)F)cccc45)c3)cccc2c1 [Example 69, [5-({3-[3-benzyl-8-(trifluoromethyl)quinolin-4-yl]benzyl}oxy)-2-naphthyl]acetic acid] |
| 7 | 50 | 331 | O=C(O)c1ccc(F)cc1NCc1cccc(-c2c(Cc3ccccc3)cnc3c(C(F)(F)F)cccc23)c1 [Example 41, 2-({3-[3-benzyl-8-(trifluoromethyl)quinolin-4-yl]benzyl}amino)-4-fluorobenzoic acid] |
| – | > 1000 | > 1000 | O=C(O)Cc1ccc(NCc2cncc(-c3ccnc4c(C(F)(F)F)cccc34)c2)cc1 [Example 120, {4-[({5-[8-(trifluoromethyl)quinolin-4-yl]pyridin-3-yl}methyl)amino]phenyl}acetic acid] |
| 1 | 2300 | 1710 | O=C(O)c1cnc(Oc2cccc(-c3c(Cc4ccccc4)cnc4c(C(F)(F)F)cccc34)c2)cn1 [Example 121, 5-{3-[3-Benzyl-8-(trifluoromethyl)quinolin-4-yl]phenoxy}pyrazine-2-carboxylic acid] |
| 4 | 309 | 1100 | O=C(N[C@@H](Cc1c[nH]cn1)C(=O)O)c1cccc(COc2cccc(-c3c(Cc4ccccc4)cnc4c(C(F)(F)F)cccc34)c2)c1 [Example 72, N-[3-({3-[3-benzyl-8-(trifluoromethyl)quinolin-4-yl]phenoxy}methyl)benzoyl]histidine] |
| 3 | 319 | 864 | O=C(O)c1ccc(OCc2cccc(-c3c(Cc4ccccc4)cnc4c(C(F)(F)F)cccc34)c2)c(F)c1 [Example 84, 4-({3-[3-benzyl-8-(trifluoromethyl)quinolin-4-yl]benzyl}oxy)-3-fluorobenzoic acid] |
| 10 | 34 | 333 | O=C(O)CCc1ccc(NCc2cccc(-c3c(Cc4ccccc4)cnc4c(C(F)(F)F)cccc34)c2)cc1 [Example 27, 3-[4-({3-[3-benzyl-8-(trifluoromethyl)quinolin-4-yl]benzyl}amino)phenyl]propanoic acid] |
| 7 | 131 | 961 | Cc1ccc(CC(=O)O)c(NCc2cccc(-c3c(Cc4ccccc4)cnc4c(C(F)(F)F)cccc34)c2)c1C [Example 35, [2-({3-[3-benzyl-8-(trifluoromethyl)quinolin-4-yl]benzyl}amino)-3,4-dimethylphenyl]acetic acid] |
| 5 | 38 | 178 | O=C(O)C1CCN(C(=O)c2ccc(COc3cccc(-c4c(Cc5ccccc5)cnc5c(C(F)(F)F)cccc45)c3)cc2)CC1 [Example 60, 1-[4-({3-[3-benzyl-8-(trifluoromethyl)quinolin-4-yl]phenoxy}methyl)benzoyl]piperidine-4-carboxylic acid] |
| 1 | 605 | 656 | Cc1ccc(C(=O)O)cc1C#Cc1cccc(-c2c(Cc3ccccc3)cnc3c(C(F)(F)F)cccc23)c1 [Example 129, 3-({3-[3-Benzyl-8-(trifluoromethyl)quinolin-4-yl]phenyl}ethynyl)-4-methylbenzoic acid] |
| – | 15700 | > 10000 | O=C(O)Cc1cccc2c(NCc3cncc(-c4ccnc5c(C(F)(F)F)cccc45)c3)cccc12 [Example 116, {5-[({5-[8-(trifluoromethyl)quinolin-4-yl]pyridin-3-yl}methyl)amino]-1-naphthyl}acetic acid] |
